Measured values reported in US8557833B2, “Aminopyrimidines useful as kinase inhibitors” (priority 2005, dated 2013).
pKi: −log10 of the molar value.

Experiments:
Type in all cases: biochemical
Conditions in all cases: ATP at or close to Km
MuSK = target: T1, MuSK (Homo sapiens, UniProt O15146); test: MuSK inhibition assay
T1 sequence (O15146 24-869): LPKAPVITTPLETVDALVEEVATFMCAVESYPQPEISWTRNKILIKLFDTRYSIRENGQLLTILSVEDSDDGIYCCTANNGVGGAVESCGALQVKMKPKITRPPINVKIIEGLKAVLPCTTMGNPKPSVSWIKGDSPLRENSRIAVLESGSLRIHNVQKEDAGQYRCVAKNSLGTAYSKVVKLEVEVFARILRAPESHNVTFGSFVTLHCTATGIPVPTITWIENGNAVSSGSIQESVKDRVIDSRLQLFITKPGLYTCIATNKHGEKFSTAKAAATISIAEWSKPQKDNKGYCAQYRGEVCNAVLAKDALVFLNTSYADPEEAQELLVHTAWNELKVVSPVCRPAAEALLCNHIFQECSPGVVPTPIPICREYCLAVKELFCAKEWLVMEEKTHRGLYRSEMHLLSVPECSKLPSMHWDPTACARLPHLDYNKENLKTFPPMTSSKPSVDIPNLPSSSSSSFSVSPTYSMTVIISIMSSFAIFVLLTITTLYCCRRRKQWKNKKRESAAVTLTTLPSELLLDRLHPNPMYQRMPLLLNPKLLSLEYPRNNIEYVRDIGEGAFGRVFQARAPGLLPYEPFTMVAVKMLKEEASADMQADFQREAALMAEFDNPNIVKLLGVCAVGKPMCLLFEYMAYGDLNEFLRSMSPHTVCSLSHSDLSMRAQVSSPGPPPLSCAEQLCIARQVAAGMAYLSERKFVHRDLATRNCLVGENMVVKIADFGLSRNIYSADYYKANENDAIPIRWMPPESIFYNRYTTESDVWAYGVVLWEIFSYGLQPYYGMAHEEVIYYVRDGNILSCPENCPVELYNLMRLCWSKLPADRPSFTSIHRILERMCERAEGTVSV
Source text: (§1) Compound I-1 was screened for its ability to inhibit Arg (Abl-2), FGFR1, MELK, MLK1, MuSK, Ret, and TrkA using screening methods known to one of ordinary skill in the art. All of the above enzymes were screened with ATP concentrations at or close to the Km for ATP.

TrkA = TrkA (Homo sapiens, UniProt P04629); test: TrkA inhibition assay
TrkA, sequence (P04629 33-796, species assumed): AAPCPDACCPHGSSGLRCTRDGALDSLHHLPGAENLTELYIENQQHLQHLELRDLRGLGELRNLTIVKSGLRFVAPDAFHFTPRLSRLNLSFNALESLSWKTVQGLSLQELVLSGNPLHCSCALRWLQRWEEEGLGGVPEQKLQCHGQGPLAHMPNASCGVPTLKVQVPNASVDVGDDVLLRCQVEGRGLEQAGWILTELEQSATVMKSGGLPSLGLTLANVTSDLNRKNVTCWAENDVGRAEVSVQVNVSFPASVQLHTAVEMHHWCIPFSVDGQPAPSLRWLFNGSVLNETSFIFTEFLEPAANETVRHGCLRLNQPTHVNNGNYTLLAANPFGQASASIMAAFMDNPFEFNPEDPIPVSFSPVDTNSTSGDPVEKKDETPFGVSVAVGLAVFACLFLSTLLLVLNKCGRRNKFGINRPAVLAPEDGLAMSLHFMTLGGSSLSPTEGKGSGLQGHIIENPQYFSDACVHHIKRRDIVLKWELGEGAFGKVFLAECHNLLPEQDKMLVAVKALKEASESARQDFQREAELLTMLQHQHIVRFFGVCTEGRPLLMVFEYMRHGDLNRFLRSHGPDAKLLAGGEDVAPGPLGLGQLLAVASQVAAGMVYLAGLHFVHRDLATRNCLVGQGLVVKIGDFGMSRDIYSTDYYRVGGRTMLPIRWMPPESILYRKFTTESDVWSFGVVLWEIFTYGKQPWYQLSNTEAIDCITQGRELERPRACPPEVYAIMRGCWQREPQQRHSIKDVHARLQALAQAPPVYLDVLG
Source text: as §1

Arg (Abl-2) = Arg (Abl-2) (Homo sapiens, UniProt P42684); test: Arg (Abl-2) inhibition assay
Source text: as §1

MLK1 = MLK1 (Homo sapiens, UniProt P80192); test: MLK1 inhibition assay
MLK1, sequence (P80192 whole entry, species assumed): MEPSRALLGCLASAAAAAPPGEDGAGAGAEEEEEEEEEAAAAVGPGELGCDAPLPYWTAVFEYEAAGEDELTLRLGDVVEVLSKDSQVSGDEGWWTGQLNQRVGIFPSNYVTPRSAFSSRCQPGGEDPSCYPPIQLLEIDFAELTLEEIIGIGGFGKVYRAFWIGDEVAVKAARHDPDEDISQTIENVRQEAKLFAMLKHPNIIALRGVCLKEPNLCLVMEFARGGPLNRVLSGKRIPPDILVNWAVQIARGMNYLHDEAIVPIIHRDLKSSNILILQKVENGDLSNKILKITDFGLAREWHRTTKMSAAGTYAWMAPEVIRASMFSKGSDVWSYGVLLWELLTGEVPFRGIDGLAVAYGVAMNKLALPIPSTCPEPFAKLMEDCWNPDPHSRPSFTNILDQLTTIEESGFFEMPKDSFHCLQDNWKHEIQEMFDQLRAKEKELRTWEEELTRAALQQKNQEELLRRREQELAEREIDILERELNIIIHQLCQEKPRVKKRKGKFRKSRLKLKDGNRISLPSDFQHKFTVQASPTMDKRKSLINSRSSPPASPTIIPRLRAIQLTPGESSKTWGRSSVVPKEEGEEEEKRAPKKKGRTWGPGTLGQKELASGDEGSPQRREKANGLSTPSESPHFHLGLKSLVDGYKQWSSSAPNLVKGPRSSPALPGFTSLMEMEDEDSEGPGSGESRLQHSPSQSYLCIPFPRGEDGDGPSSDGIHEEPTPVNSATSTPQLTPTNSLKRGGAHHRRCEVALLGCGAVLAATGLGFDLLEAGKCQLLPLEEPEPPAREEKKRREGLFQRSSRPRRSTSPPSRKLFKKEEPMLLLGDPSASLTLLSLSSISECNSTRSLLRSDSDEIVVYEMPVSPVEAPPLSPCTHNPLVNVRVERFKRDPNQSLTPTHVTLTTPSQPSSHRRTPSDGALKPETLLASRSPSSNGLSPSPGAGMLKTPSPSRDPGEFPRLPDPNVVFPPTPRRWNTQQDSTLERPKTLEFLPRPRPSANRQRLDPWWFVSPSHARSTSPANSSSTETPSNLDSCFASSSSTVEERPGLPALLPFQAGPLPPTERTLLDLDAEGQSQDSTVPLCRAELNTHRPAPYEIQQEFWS
Source text: as §1

Ret = Ret (Homo sapiens, UniProt P07949); test: Ret inhibition assay
Ret, sequence (P07949 29-1114, species assumed): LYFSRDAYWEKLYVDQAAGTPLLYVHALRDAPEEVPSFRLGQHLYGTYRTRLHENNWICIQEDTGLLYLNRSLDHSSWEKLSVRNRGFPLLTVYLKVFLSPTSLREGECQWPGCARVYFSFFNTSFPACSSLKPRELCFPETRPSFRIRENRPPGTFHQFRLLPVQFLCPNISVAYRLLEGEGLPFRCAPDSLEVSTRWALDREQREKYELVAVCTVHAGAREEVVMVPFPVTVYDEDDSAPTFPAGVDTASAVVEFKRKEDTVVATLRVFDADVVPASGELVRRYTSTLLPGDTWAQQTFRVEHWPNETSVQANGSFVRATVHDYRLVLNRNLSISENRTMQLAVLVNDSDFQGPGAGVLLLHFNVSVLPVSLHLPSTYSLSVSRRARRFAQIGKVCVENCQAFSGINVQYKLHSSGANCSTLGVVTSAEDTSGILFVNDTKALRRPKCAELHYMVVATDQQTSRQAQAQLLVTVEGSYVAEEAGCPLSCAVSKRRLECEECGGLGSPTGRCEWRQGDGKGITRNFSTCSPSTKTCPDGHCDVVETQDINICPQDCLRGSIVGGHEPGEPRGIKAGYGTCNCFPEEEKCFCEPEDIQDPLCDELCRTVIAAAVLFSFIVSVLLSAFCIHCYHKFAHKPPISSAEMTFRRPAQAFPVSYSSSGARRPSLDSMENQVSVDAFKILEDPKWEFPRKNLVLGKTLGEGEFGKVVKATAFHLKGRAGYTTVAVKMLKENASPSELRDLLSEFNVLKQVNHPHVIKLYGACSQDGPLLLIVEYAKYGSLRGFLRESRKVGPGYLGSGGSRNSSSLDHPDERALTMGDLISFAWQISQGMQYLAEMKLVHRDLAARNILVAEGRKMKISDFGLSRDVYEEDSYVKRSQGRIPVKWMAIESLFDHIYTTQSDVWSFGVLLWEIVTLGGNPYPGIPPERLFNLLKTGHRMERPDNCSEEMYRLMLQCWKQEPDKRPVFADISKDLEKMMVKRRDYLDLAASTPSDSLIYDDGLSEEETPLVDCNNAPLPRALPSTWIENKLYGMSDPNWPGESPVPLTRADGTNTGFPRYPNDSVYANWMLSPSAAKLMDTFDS
Source text: as §1

FGFR1 = FGFR1 (Homo sapiens, UniProt P11362); test: FGFR1 inhibition assay
FGFR1, sequence (P11362 22-822, species assumed): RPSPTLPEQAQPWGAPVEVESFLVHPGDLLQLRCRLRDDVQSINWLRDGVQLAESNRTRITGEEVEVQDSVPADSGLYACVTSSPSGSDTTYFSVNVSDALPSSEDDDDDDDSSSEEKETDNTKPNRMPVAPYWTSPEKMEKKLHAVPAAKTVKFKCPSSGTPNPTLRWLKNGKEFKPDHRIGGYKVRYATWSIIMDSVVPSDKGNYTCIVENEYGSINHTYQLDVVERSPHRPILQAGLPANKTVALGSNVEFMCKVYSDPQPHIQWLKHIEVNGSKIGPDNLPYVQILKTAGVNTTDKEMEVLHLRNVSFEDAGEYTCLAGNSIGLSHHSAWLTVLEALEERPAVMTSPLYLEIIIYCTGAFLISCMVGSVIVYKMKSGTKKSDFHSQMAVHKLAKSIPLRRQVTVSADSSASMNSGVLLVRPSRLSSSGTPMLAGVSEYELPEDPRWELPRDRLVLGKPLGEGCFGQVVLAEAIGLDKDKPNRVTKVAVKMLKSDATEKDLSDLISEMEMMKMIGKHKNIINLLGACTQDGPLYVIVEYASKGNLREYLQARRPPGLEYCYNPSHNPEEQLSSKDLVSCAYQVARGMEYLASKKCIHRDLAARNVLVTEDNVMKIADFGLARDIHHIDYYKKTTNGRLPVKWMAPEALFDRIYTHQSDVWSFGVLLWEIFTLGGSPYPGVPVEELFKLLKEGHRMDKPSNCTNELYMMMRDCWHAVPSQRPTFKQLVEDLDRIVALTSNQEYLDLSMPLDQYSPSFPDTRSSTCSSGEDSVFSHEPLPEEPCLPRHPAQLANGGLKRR
Source text: as §1

MELK = MELK (Homo sapiens, UniProt Q14680); test: MELK inhibition assay
MELK, sequence (Q14680 whole entry, species assumed): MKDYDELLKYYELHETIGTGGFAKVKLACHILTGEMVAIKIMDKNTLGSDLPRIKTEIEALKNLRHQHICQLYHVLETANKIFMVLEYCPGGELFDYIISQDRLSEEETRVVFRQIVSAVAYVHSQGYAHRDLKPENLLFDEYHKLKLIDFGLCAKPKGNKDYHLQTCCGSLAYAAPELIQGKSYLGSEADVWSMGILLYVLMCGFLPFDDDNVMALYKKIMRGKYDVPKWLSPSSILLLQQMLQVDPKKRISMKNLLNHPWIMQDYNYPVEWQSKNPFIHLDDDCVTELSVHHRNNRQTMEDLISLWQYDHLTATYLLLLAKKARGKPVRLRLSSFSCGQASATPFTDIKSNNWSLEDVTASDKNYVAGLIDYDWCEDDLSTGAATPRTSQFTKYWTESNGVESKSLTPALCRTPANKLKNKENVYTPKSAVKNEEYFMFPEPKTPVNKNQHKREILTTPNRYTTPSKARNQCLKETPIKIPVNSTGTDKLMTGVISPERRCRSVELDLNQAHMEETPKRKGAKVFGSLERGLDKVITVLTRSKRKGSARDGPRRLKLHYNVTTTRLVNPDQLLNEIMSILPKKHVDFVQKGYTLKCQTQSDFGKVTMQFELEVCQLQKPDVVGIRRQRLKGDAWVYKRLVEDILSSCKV
Source text: as §1

With `Cc1cc(Nc2cc(N3CCC3)nc(Sc3ccc(NC(=O)c4ccccc4Cl)cc3)n2)[nH]n1` [Compound I-1, N-{4-[4-Azetidin-1-yl-6-(5-methyl-2H-pyrazol-3-ylamino)-pyrimidin-2-ylsulfanyl]-phenyl}-2-chloro-benzamide] the pKi (MuSK) was 7.15, the pKi (TrkA) was > 8.22 and the pKi (Arg (Abl-2)) was 7.92. For the same compound, the pKi (MLK1) was > 7.74, the pKi (Ret) was 8.10 and the pKi (FGFR1) was 8.30. The pKi (MELK) was 7.77.
